In US12208001B2, “Methods and systems for preventing or reducing stenosis in a subject receiving a graft” (The General Hospital Corporation, priority 2012, dated 2025):
Where two headings read alike, the source gives them in different places.

Tests used:
[1] = test system: rabbit model for capsular contraction; experiment: Pilot rabbit model for capsular contraction: sub-cutaneous pockets with fibrin glue, histology at two weeks; format: in vivo; details: tissue harvested at two weeks; 0.1% Rose Bengal + 532 nm light (3 min at 350 mW) prior to fibrin glue; vs fibrin glue only
Protocol: (§1) A pilot experiment in a rabbit model for capsular contraction was developed. Three sub-cutaneous pockets were made by surgical incision on the upper rabbit flank. One pocket was left untreated and surgically closed (No fibrin glue). Of the remaining two, one was treated with Fibrin Glue only, and one received Fibrin Glue+RB (0.1% Rose Bengal)+532 nm light (3 min at 350 mW). Fibrin glue is known to produce a fibrotic reaction in this model. After two weeks all three pockets were surgically re-accessed and inspected. […] These cells also appear contained under layers of presumably, cross-linked collagen. A biodegradation assay was also performed. Pockets were treated as described above at both a low (1 J/cm^2) and high (25 J/cm^2) fluence. Fluence was measured using FieldMax II laser power meter (Coherent, Santa Clara, CA). Immediately following, the skin and fascia were removed. Treated and untreated fascia were biopsied with a six mm punch biopsy, weighed and subjected to digestion in a 1% collagenase (Sigma Aldrich. St. Louis, MO) solution at 37° C. Time for complete digestion (the lack of any visible fibers) was recorded for each sample and corrected by weight.

connective tissue = test system: connective tissue
Excerpt: In certain embodiments, a photoactive agent, e.g., Rose Bengal, can be applied, e.g., by brushing, dripping or spraying onto, or injecting into, tissue surfaces (e.g., a single surface in some cases) of a tissue prior to the application of electromagnetic energy, followed by irradiation at an irradiance of less than about 1 W/cm^2. Penetration of topically applied Rose Bengal is about 100 μm or less into connective tissue. […] Similarly, vein grafts or arteriovenous fistula can be prepared for therapeutic use by providing Rose Bengal to the tissue and irradiating the tissue at an irradiance of less than about 1 W/cm^2.

[2] = test system: vein graft intimal hyperplasia; format: in vivo, Sprague-Dawley rats
Protocol: In vivo testing was done by placing a. reversed epigastric vein interposition graft in the femoral artery of Sprague-Dawley rats. Grafts were harvested after four weeks. A total of 16 rats underwent a femoral interposition graft with reversed epigastric vein. Half of the vein gratis (N=8) were treated with PTP using 25 J/cm^2 at fluence. Average operative time was two hours. Additional operative time for PTP was 4-5 minutes on average. There were three instances of surgical wound dehiscence between post-operative day one and two; one in the control group and two in the experimental group. These wounds were irrigated and resutured. None of the grafts were exposed. […] After four weeks, 100% of the vein grafts were patent. […] Histologic cross-sections of the mid-portion of the graft were analyzed using light microscopy. Intimal thickness was measured as the distance between the internal elastic lamina. and the vessel lumen.

[3] = test system: capsular contracture following prosthetic implant placement; experiment: Pre-clinical model of capsular contracture following prosthetic implant placement, fibrin glue induced; format: in vivo, New Zealand white rabbits
Protocol: The effect of Photochemical Tissue Passivation in a pre-clinical model of capsular contracture following prosthetic implant placement was evaluated. Under general anesthesia, Nine New Zealand white rabbits received three, six cc smooth saline implants placed in the dorsal sub-panniculus soft tissue. Each Rabbit received one control implant and two experimental implants. Briefly, the subpanniculus camosus plane in the dorsum region was dissected and a single customized six cc saline smooth implant with pressure port valve (Allergan Inc., CA, USA) was placed. A total of three implants were placed on the dorsum of each rabbit. The control group consisted of an implant with no Fibrin Glue and no PTP treatment. Before implant placement, the pocket site of the PTP experimental group was treated with 2 ml 0.1% Rose Bengal in a phosphate buffered saline, and Was then exposed to green laser light at 532 nm from a continuous wave KTP laser (Laserscope Aura-I, San Jose, CA). The second experimental group consisted of an implant with Fibrin Glue only. Prior to implant placement, all experimental pockets were injected with five cc of fibrin glue, 500 |μl of 10% CaCl, 1000 units of thrombin in one milliliter of 50 mM TrisCl as a contracture inducing agent. The incisions were closed in two layers with subdermal 4-0 […] and 4-0 interrupted nylon sutures. Topical fibrin glue was applied to the implant pockets in all experimental groups to induce subsequent capsular contracture. Accordingly, the experimental groups can be summarized as follows: Group 1: Control group-“Standard Breast Augmentation” One pocket per Rabbit undergoing standard implant placement with no Fibrin Glue or Passivation. One six cc smooth saline implant was placed per pocket. The incisions were closed in two layers with subdermal 4-0 Vicryl and 4-0 interrupted nylon sutures. Group 2: Experimental group-“Fibrin Glue” only One dorsal pocket per Rabbit is dissected. Fibrin glue was injected into the implant pocket as a capsular contracture-inducing agent. One six cc smooth saline implants was placed per pocket. The incision was closed as above. Group 3: Experimental group-“Pre-implant Tissue Passivation” One dorsal pocket per Rabbit was dissected, Rose Bengal dye was applied. The pocket was exposed to green laser light at. 532 nm from. a continuous wave KT.? laser (Laserscope Aura-I, San Jose, CA). Fibrin glue was injected into the implant pocket as a capsular contracture-inducing agent. Following fibrin glue injection, one six cc smooth saline implant was placed per pocket. The incision was closed as above. Capsule specimens were fixed with 10% buffered formalin and embedded in paraffin. Sections were stained with both Masson Trichrome, and SMA antibody and evaluated histologically and capsular thickness was measured. […] In fact, the SMA pattern in capsules harvested from the treated groups resembled those, which had not been instilled with fibrin glue (FIG. 3).

[4] = test system: fascia of the implant pocket; experiment: Biodegradation assay: collagenase digestion of fascia; design: species or system rabbit
Protocol: as §1, with “weight. In vitro studies confirmed that photochemical tissue passivation, under the conditions that were subsequently used in the animal study, could successfully alter the fascia of the implant pocket. […]” for “weight.”

For `O=C1OC2(c3cc(I)c(O)c(I)c3Oc3c2cc(I)c(O)c3I)c2c(Cl)c(Cl)c(Cl)c(Cl)c21` [PTP, Rose Bengal], which “inflammatory infiltrate within the implant pockets (histology)” value [1] is on record?
The value was “less infiltrate”.

And the “penetration into connective tissue” value (connective tissue)?
Its value is at most 100 μm.

What about the “Intimal Thickness” value ([2]; after four weeks, N = 8, Table 2) of the same compound?
Its value is 24 + 22 um.

And the “Medial thickness” value ([2]; after four weeks, N = 8, Table 3)?
Its value is 141 + 40 um.

And the vein grafts patent ([2]; after four weeks, all grafts, treated and untreated)?
Its vein grafts patent is 100%.

What about the neointimal thickness ([2]; four weeks, PTP 25 J/cm^2, N=8) of the same compound?
The neointimal thickness was 24+22 μm.

And the Medial thickness ([2]; four weeks, treated grafts)?
The Medial thickness was 141 µm.

What about the “instances of surgical wound dehiscence” value ([2]; rat, in vivo) of the same compound?
Its value is “two”.

And the “pseudoaneurysms or aneurysmal dilatation of the grafts” value ([2]; rat, in vivo)?
The value was “no pseudoaneurysms or aneurysmal dilatation”.

And the wound infections ([2]; rat, in vivo)?
The wound infections was “no wound infections”.

And the “graft distention after vessel clamp removal” value ([2]; restored blood flow, compared to untreated controls)?
The value was “less distention”.

What about the “smooth muscle hypertrophy and medial thickness” value ([2]; treated compared to untreated grafts) of the same compound?
Its value is “marked reduction in smooth muscle hypertrophy and medial thickness”.

And the “reduction in neointimal thickness” value ([2]; treated grafts vs untreated)?
Its value is 70%.

What about the “capsular thickness compared to Fibrin Glue alone control (histology)” value ([3]; eight weeks, Fibrin Glue + Photochemical Tissue Passivation group) of the same compound?
Its value is “significant decrease in capsular thickness”.

What about the “decrease in capsule thickness” value ([3]; eight weeks, compared to the controls) of the same compound?
The value was 52%.

What about the “deposition of smooth muscle actin (SMA immunohistochemistry)” value ([3]; eight weeks, treated pockets vs untreated pockets receiving fibrin glue) of the same compound?
Its value is “significantly less deposition of smooth muscle actin”.

What about the “fibrohistiocystic cells, macrophages and synovial metaplasia” value ([3]; treated pockets) of the same compound?
The value was “less fibrohistiocystic cells, macrophages and synovial metaplasia”.

And the “inflammation and vascularity within the capsule” value ([3]; treated pockets)?
The value was “decreased inflammation and vascularity”.

What about the “increase in degradation time (collagenase digestion)” value ([4]; 1% collagenase, 37° C, compared to untreated tissue) of the same compound?
The value was 300%.

And the “effect of increasing the power of the laser on collagen cross-linking” value ([4]; high (25 J/cm^2) vs low (1 J/cm^2) fluence)?
Its value is “did not increase collagen cross-linking”.
